Kd data for two compounds are collected here from article PMC10039885, “Unnatural activities and mechanistic insights of cytochrome P450 PikC gained from site-specific mutagenesis by non-canonical amino acids” (Nature Communications, 2023).

The test has as its target T1, PikC (PikCWT; cytochrome P450 CYP107L1) (Streptomyces venezuelae, UniProt O87605).
T1 construct: pET28a-pikC, expressed in E. coli BL21(DE3), Ni-NTA purified; heme protein
T1 sequence (O87605 1-416): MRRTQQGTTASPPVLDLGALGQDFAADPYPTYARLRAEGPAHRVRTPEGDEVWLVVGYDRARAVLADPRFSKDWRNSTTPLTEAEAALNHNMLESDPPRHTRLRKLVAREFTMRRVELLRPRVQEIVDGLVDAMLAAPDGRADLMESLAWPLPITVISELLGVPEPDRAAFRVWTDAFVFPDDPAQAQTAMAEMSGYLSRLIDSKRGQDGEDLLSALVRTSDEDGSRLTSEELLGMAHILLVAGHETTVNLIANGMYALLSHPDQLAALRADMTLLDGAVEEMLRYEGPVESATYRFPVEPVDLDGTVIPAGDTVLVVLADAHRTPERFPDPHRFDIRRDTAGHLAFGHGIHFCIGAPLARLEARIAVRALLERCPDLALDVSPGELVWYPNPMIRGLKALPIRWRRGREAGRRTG
As to the kind of experiment: UV-vis difference spectral titration ([…]-420 nm). The test is classed as binding.

Broadly, the Kd is a measure of binding affinity in units of concentration. High values mean lower affinity, low ones higher affinity. `CC[C@H]1OC(=O)[C@H](C)C(=O)[C@H](C)[C@@H](O[C@@H]2O[C@H](C)C[C@H](N(C)C)[C@H]2O)[C@@H](C)C[C@@H](C)C(=O)/C=C/[C@H]1C` [compound 5, narbomycin] yielded a dissociation constant Kd of 374 µM.
For the compound `CC[C@H]1OC(=O)[C@H](C)[C@@H](O[C@@H]2O[C@H](C)C[C@H](N(C)C)[C@H]2O)[C@@H](C)C[C@@H](C)C(=O)/C=C/[C@H]1C` [compound 4, YC-17], the Kd was determined as 178 µM.
